Experimental data from patent US11672799B2, “1,4-disubstituted pyridazine quinolne analogs there of and methods for treating SMN-deficiency-related conditions” (Novartis AG, priority 2013, dated 2023).
pEC50: −log10 of the molar value.

Test system: SMN protein
Assay: cellular SMN ELISA (SMN protein elevation) in myoblast cell line from SMNdelta7 mouse model
Assay type: cell-based
Settings: for SMN Activity (fold activation over DMSO control) / pEC50: Biological Example 1, SMN ELISA, SMNdelta7 mouse myoblasts, 24 hours compound treatment; for pEC50: read-out: SMN Activity (EC50)
Method: A cellular SMN ELISA was used to measure the effects of low molecular weight compounds on SMN protein elevation. Cells from a myoblast cell line derived from the SMNdelta7 mouse model (kind gift from Steve Burden, NYU) were seeded into a 384-well plate at a density of 3000 cells/well and treated with compounds for 24 hours. ELISA capture plates were prepared by coating 384-well plates (Immulon 4HBX) with 0.5 ug/mL of anti-SMN mAb (BD Science, Catalog number 610647) at 4° C. overnight. The plates were washed 5 times with 110 uL of PBS-Tween (0.05% Tween-20, PBST), blocked with 100 uL of 1% BSA in PBST for 2 hours and washed (5 times) with 100 uL of PBST. After 24 hours of compound treatment cells were lysed in a modified RIPA-buffer, on ice for 1 hour. 20 uL of lysate and 20 uL of 1% BSA were then added to the ELISA capture plates and incubated at 4° C. overnight. Plates were washed (5 times) with PBST and then incubated with 1:100 dilution of primary rabbit anti-SMN polyclonal antibody (Santa cruz, Catalog number SC-15320) at room temperature for 1 hour and subsequently washed (5 times) with 110 uL of PBST. This was followed by addition of 1:100 Goat anti-Rabbit IgG-HRP linked (Cell Signaling, Catalog number 7074) secondary antibody for 1 hour. Plates were then washed with PBST and incubated with 40 uL TMB substrate (Cell Signaling, Catalog number 7004 L) at room temperature for 1-10 minutes with shaking. The reaction was stopped by addition of 40 uL of stop solution (Cell signaling, Catalog number 7002 L) and absorption was measured at 450 nm. Data was reported as fold activation over DMSO control, and EC50.
ELISA assay condition 1: compound concentration range 20 nM-10 uM; ELISA assay condition 2: compound concentration 100 pM-10 uM. Data generated in Biological Example 1 using ELISA conditions 1 or 2.

Row | SMILES | SMN Activity (fold activation over DMSO control) | pEC50 | SMN ELISA EC50 (comparison of unsubstituted, ortho-hydroxy and ortho-alkoxy pyridazines, as in Biological Example 1)
1 | Cc1cc(C2COC2)c2cc(-c3ccc(N(C)C4CC(C)(C)NC(C)(C)C4)nn3)c(O)cc2n1 [Example 20-6, 2-methyl-6-(6-(methyl(2,2,6,6-tetramethylpiperidin-4-yl)amino)pyridazin-3-yl)-4-(oxetan-3-yl)quinolin-7-ol] | 3.18 fold | 6.78 | 
2 | CCOc1cc2nccnc2cc1-c1ccc(N(C)C2CC(C)(C)NC(C)(C)C2)nn1 [drawing 139 R = OEt, 6-(7-Ethoxyquinoxalin-6-yl)-N-methyl-N-(2,2,6,6-tetramethylpiperidin-4-yl)pyridazin-3-amine] |  |  | Inactive
3 | Cc1cc(Cl)c2cc(-c3ccc(N(C)C4CC(C)(C)NC(C)(C)C4)nn3)c(O)cc2n1 [Preparation 11, 4-chloro-2-methyl-6-(6-(methyl(2,2,6,6-tetramethylpiperidin-4-yl)amino)pyridazin-3-yl)quinolin-7-ol] | 2.6 fold | 6.55 | 
4 | CC1(C)CC(Oc2ccc(-c3cc4cnccc4cc3O)nn2)CC(C)(C)N1 [Example 3-3, 7-(6-((2,2,6,6-tetramethylpiperidin-4-yl)oxy)pyridazin-3-yl)isoquinolin-6-ol] | 2.5 fold | 7.08 | 
5 | CN(c1ccc(-c2cc3cc(C#N)cnc3cc2O)nn1)C1CC(C)(C)NC(C)(C)C1 [Example 7-3, 7-hydroxy-6-(6-(methyl(2,2,6,6-tetramethylpiperidin-4-yl)amino)pyridazin-3-yl)quinoline-3-carbonitrile] | 3.1 fold | 8.10 | 
6 | COC(=O)c1ccc2cc(O)c(-c3ccc(N(C)C4CC(C)(C)NC(C)(C)C4)nn3)cc2n1 [Example 26-7, methyl 6-hydroxy-7-(6-(methyl(2,2,6,6-tetramethylpiperidin-4-yl)amino)pyridazin-3-yl)quinoline-2-carboxylate] | 2.64 fold | 7.77 | 
7 | Cc1cc2cc(O)c(-c3ccc(N(C)C4CC(C)(C)NC(C)(C)C4)nn3)cc2cn1 [Example 36-2, 3-methyl-7-(6-(methyl(2,2,6,6-tetramethylpiperidin-4-yl)amino)-pyridazin-3-yl)isoquinolin-6-ol] | 2.64 fold | 8.05 | 
8 | CN(c1ccc(-c2cc3c(O)nccc3cc2O)nn1)C1CC(C)(C)NC(C)(C)C1 [Example 3-6, 7-(6-(methyl(2,2,6,6-tetramethylpiperidin-4-yl)amino)pyridazin-3-yl)isoquinoline-1,6-diol] | 2.43 fold | 8.10 | 
9 | CN(c1ccc(-c2cc3cncnc3cc2O)nn1)C1CC(C)(C)NC(C)(C)C1 [Example 23-1, 6-(6-(methyl(2,2,6,6-tetramethylpiperidin-4-yl)amino)pyridazin-3-yl)quinazolin-7-ol] | 3.6 fold | 7.39 | 
10 | CN(c1ccc(-c2cc3c(cc2O)c(=O)ccn3C)nn1)C1CC(C)(C)NC(C)(C)C1 [Example 17-1, 6-hydroxy-1-methyl-7-(6-(methyl(2,2,6,6-tetramethylpiperidin-4-yl)amino)pyridazin-3-yl)quinolin-4(1H)-one] | 2.56 fold | 6.16 | 
11 | CCc1cnc2cc(O)c(-c3ccc(N(C)C4CC(C)(C)NC(C)(C)C4)nn3)cc2c1 [Example 8-1, 3-ethyl-6-(6-(methyl(2,2,6,6-tetramethylpiperidin-4-yl)amino)pyridazin-3-yl)quinolin-7-ol] | 2.9 fold | 7.07 | 
12 | CN(c1ccc(-c2cc3cc(-n4ccnc4)cnc3cc2O)nn1)C1CC(C)(C)NC(C)(C)C1 [Example 7-5, 3-(1H-imidazol-1-yl)-6-(6-(methyl(2,2,6,6-tetramethylpiperidin-4-yl)amino)pyridazin-3-yl)quinolin-7-ol] | 2.5 fold | 7.30 | 
13 | Oc1cc2cccnc2cc1-c1ccc(C2=CCNCC2)nn1 [Example 28-1, 7-(6-(1,2,3,6-tetrahydropyridin-4-yl)pyridazin-3-yl)quinolin-6-ol] | 1.9 fold | 6.81 | 
14 | CC(C)c1cnc2cc(O)c(-c3ccc(N(C)C4CC(C)(C)NC(C)(C)C4)nn3)cc2c1 [Example 8-2, 3-isopropyl-6-(6-(methyl(2,2,6,6-tetramethylpiperidin-4-yl)amino)pyridazin-3-yl)quinolin-7-ol] | 2.50 fold | 6.72 | 
15 | Cc1nccc2cc(-c3ccc(N(C)C4CC(C)(C)NC(C)(C)C4)nn3)c(O)cc12 [Example 29-1, 1-methyl-6-(6-(methyl(2,2,6,6-tetramethylpiperidin-4-yl)amino)pyridazin-3-yl)isoquinolin-7-ol] | 2.96 fold | 7.85 | 
16 | CN(c1ccc(-c2cc3cc(Br)cnc3cc2O)nn1)C1CC(C)(C)NC(C)(C)C1 [Example 7-2, 3-bromo-6-(6-(methyl(2,2,6,6-tetramethylpiperidin-4-yl)amino)pyridazin-3-yl)quinolin-7-ol] | 2.6 fold | 8.10 | 
17 | Cc1cc(N2CCOCC2)c2cc(-c3ccc(N(C)C4CC(C)(C)NC(C)(C)C4)nn3)c(O)cc2n1 [Example 10-3, 2-Methyl-6-(6-(methyl(2,2,6,6-tetramethylpiperidin-4-yl)amino)pyridazin-3-yl)-4-morpholinoquinolin-7-ol] | 2.6 fold | 6.96 | 
18 | CN(c1ccc(-c2cc3ccc(C(N)=O)nc3cc2O)nn1)C1CC(C)(C)NC(C)(C)C1 [Example 26-5, 7-hydroxy-6-(6-(methyl(2,2,6,6-tetramethylpiperidin-4-yl)amino)pyridazin-3-yl)quinoline-2-carboxamide] | 2.16 fold | 9.00 | 
19 | Cc1cc(-c2cnn(C)c2)c2cc(-c3ccc(N(C)C4CC(C)(C)NC(C)(C)C4)nn3)c(O)cc2n1 [Example 11-1, 2-methyl-6-(6-(methyl(2,2,6,6-tetramethylpiperidin-4-yl)amino)pyridazin-3-yl)-4-(1-methyl-1H-pyrazol-4-yl)quinolin-7-ol] | 2.6 fold | 7.22 | 
20 | Oc1cc2ccncc2cc1-c1ccc(N2CCNCC2)nn1 [Example 27-3, 7-(6-(piperazin-1-yl)pyridazin-3-yl)isoquinolin-6-ol] | 2.74 fold | 6.70 | 
21 | CN(c1ccc(-c2cc3nc(C#N)ccc3cc2O)nn1)C1CC(C)(C)NC(C)(C)C1 [Example 26-3, 6-hydroxy-7-(6-(methyl(2,2,6,6-tetramethylpiperidin-4-yl)amino)pyridazin-3-yl)quinoline-2-carbonitrile] | 3.47 fold | 8.22 | 
22 | CN(c1ccc(-c2cc3cc(-c4cn(C)cn4)cnc3cc2O)nn1)C1CC(C)(C)NC(C)(C)C1 [Example 7-4, 6-(6-(methyl(2,2,6,6-tetramethylpiperidin-4-yl)amino)pyridazin-3-yl)-3-(1-methyl-1H-imidazol-4-yl)quinolin-7-ol] | 2.2 fold | 6.70 | 
23 | CN(c1ccc(-c2cc3ncc(Br)cc3cc2O)nn1)C1CC(C)(C)NC(C)(C)C1 [Example 15-2, 3-bromo-7-(6-(methyl(2,2,6,6-tetramethylpiperidin-4-yl)amino)pyridazin-3-yl)quinolin-6-ol] | 2.52 fold | 7.72 | 
24 | COc1cc(C)nc2cc(O)c(-c3ccc(N(C)C4CC(C)(C)NC(C)(C)C4)nn3)cc12 [Example 10-1, 4-methoxy-2-methyl-6-(6-(methyl(2,2,6,6-tetramethylpiperidin-4-yl)amino)pyridazin-3-yl)quinolin-7-ol] | 3.3 fold | 8.00 | 
25 | Cc1cc(C2=CCOCC2)c2cc(-c3ccc(N(C)C4CC(C)(C)NC(C)(C)C4)nn3)c(O)cc2n1 [Example 20-4, 4-(3,6-dihydro-2H-pyran-4-yl)-2-methyl-6-(6-(methyl(2,2,6,6-tetramethylpiperidin-4-yl)amino)pyridazin-3-yl)quinolin-7-ol] | 2.72 fold | 6.78 | 
26 | Cc1cc(C2CC2)c2cc(-c3ccc(N(C)C4CC(C)(C)NC(C)(C)C4)nn3)c(O)cc2n1 [Example 20-3, 4-cyclopropyl-2-methyl-6-(6-(methyl(2,2,6,6-tetramethylpiperidin-4-yl)amino)pyridazin-3-yl)quinolin-7-ol] | 2.72 fold | 7.19 | 
27 | CN1C[C@@H]2CN(c3ccc(-c4cc5cccnc5cc4O)nn3)C[C@@H]2C1 [Example 1-3, 6-(6-((3aR,6aS)-5-methylhexahydropyrrolo[3,4-c]pyrrol-2(1H)-yl)pyridazin-3-yl)quinolin-7-ol] | 2.5 fold | 6.59 | 
